Consider five compounds from paper PMC7356297, “Bicyclic Boronates as Potent Inhibitors of AmpC, the Class C β-Lactamase from Escherichia coli” (Biomolecules, 2020).

“And” between values parts separate entries of the source, which are not always exact repeats. Equal entries are not always repeated.

For series [1], the system named is DH5α E. coli containing the pAD7-AmpCEC plasmid. Kind of series: Broth microdilution MIC of ceftazidime alone or with inhibitor, AmpCEC producing strain. In kind it is cell-based, Escherichia coli. The procedure:
(§1) Minimum inhibitory concentrations (MICs) were determined by broth microdilution in triplicate and interpreted using published Clinical and Laboratory Standards Institute (CLSI) guidelines.
(§2) Ceftazidime (CAZ) was tested alone (0.25–256 μg mL^−1) against DH5α Escherichia coli and DH5α E. coli containing the pAD7-AmpCEC plasmid and in combination with CB2, CB3, TAN, and VAB (all tested at a fixed concentration of 4 μg mL^−1) using the DH5α E. coli strain containing the pAD7-AmpCEC plasmid.

The test system of a further series is DH5α Escherichia coli. Kind of series: Broth microdilution MIC of ceftazidime, strain without plasmid. Particulars: read-out: Minimum Inhibitory Concentration Ceftazidime. In kind it is cell-based. Here is the method:
as §1, §2
Background: In broth dilution the organism is exposed to a series of concentrations in liquid medium.

The target in series [2] is T1, AmpC from Escherichia coli (AmpCEC) (Escherichia coli, UniProt P00811).
T1 construct: made in house; host or cells: E. coli W3110 (pAD7 vector)
Kind of series: IC50 determination, 500 pM AmpCEC, 5 µM FC-5, 10 min pre-incubation. Type of series: biochemical. Particulars: pIC50, 500 pM AmpCEC, 5 µM FC-5, 10 min inhibitor pre-incubation at room temperature. The procedure: (§3) All kinetic measurements were carried out in competition assays using the fluorescent substrate FC-5 [36] under steady-state conditions monitoring hydrolysis, in 100 mM phosphate buffer pH 7.5 supplemented with 0.01% (v/v) Triton X-100 (Assay Buffer). Fluorescence was measured using a PHERAstarFS (BMG Labtech, Aylesbury, United Kingdom) plate-reader, recording emission spectra at λex = 380 nm and λem = 460 nm. IC50s were determined after 10 min incubation time of 500 pM AmpCEC with varying concentrations of inhibitors and assayed using 5 µM FC-5. Nonlinear regression analyses were carried out using GraphPad Prism V. 5.04 (GraphPad Software, San Diego, CA, USA).

In series [3] the target is T1, AmpC from Escherichia coli (AmpCEC). Type of series: biochemical. Particulars: half-life of the enzyme-inhibitor complex, ln2/koff. Here is the method:
as §3
Off rates (k-2 or koff) were measured using the jump-dilution method (Figure S1c). AmpCEC (1 µM) was incubated with the respective inhibitor (10 µM for TAN, CB2 and CB3, and 100 µM for VAB) for 30 min at room temperature, then diluted 100,000 fold in the Assay Buffer (final enzyme concentration: 10 pM) and immediately assayed with 25 µM FC-5. The data were fitted to Equation (2) with V0 in this case representing the velocity of the no-enzyme control and VS representing the initial velocity of uninhibited enzyme.
The half-life of the enzyme-inhibitor complex t1/2 is given by Equation (6):(6) t1/2=ln2/koff

Series [4] has the same target. Briefly: Steady-state competition kinetics of AmpCEC (100 nM) with fluorescent substrate FC-5 (Kiapp, k2/K). Type of series: biochemical. The conditions noted are these: for Ki: Kiapp, apparent inhibition constant corrected with KM of FC-5; for kinact/KI: pH 7.5, read-out: k2/K, 100 nM AmpCEC, 5 µM FC-5. The procedure:
as §3
As described for avibactam inhibition, the kinetics of bicyclic boronate inhibition of β-lactamases can be described assuming a two-step, reversible inhibition model:(1) E+I → k1 ←k−1 E:I → k2 ←k−2 E−I with E: enzyme; I: inhibitor; k1: association rate constant; k−1: dissociation rate constant; k2: binding rate constant, and k−2: recyclization rate constant.
To obtain the pseudo first-order rate constant kobs and the apparent inhibition constant Kiapp, the rate of FC-5 (5 µM) hydrolysis by AmpCEC (100 nM) was measured in the presence of varying concentrations of the inhibitor.
Plotting the resultant kobs values against the inhibitor concentration [I] (Figure S1b) and fitting to Equation (3) gives the apparent second-order rate constant (k2/K’) (3) kobs=k2+k2/K^′∗ I with K’ representing the equilibrium coefficient of AmpCEC inhibition in the presence of FC-5 in the set concentration of 5 µM.
This can then be corrected using the Michaelis constant (KM) of FC-5 for AmpCEC and the FC-5 concentration [S] according to Equation (4) to give the second-order rate constant (k2/K):(4) k2/K=k2/K^′∗ S/KM+1
The same data were used to determine the apparent inhibition constant Kiapp. The reciprocals of the initial rates were plotted against inhibitor concentration (Figure S1a), giving a straight line for which the value of the intercept divided by the slope gives Kiapp’. From this, Kiapp can be obtained after correction with the KM for FC-5 according to Equation (5):(5) Kiapp=Kiapp’/1+S/KM

T1 sequence (P00811 20-377): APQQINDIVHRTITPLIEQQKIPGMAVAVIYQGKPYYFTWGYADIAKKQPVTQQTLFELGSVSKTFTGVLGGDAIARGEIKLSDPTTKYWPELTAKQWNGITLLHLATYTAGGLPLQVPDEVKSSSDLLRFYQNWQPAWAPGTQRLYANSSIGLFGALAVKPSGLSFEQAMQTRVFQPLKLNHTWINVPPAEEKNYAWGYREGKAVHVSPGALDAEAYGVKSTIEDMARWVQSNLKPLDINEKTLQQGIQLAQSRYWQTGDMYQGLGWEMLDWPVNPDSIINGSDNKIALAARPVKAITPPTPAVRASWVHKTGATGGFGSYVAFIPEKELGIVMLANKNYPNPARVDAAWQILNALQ

Consider `CC(C)(O/N=C(\C(=O)N[C@@H]1C(=O)N2C(C(=O)[O-])=C(C[n+]3ccccc3)CS[C@H]12)c1csc(N)n1)C(=O)O` [CAZ, Ceftazidime], for which the MIC was 256 µg/mL in series [1] (Escherichia coli, read-out: Minimum Inhibitory Concentration Ceftazidime) and 1 µg/mL with DH5α Escherichia coli.

As usually defined, the IC50 is the concentration at which inhibition is half-maximal. Consider `NCc1ccc(C(=O)N[C@H]2Cc3cccc(C(=O)O)c3OB2O)cc1` [CB2], for which the concentration for half-maximal inhibition (IC50) in series [2] was 31.6 nM and 32.4 nM. This compound also registered a t1/2 in series [3] of 4.18 ± 0.41 min. For the same compound, in series [4] (100 nM AmpCEC, 5 µM FC-5), the Ki was 3 µM and 3.26 µM. Also, in series [4] (second-order rate constant), the kinact/KI came out at 81000 ± 6400 M⁻¹ s⁻¹.

`O=C(O)c1cccc2c1OB(O)C(SCc1ccccc1)C2` (centres unmarked) [CB3] had a half-inhibitory concentration (IC50) in series [2] of 29.5 nM. In addition, the “Minimum Inhibitory Concentration Ceftazidime (CAZ + inhibitor)” value in series [1] (CAZ in combination with the inhibitor at a fixed concentration of 4 µg mL^−1, DH5α pAD7 AmpCEC) was determined as 4 µg/mL. In addition, the t1/2 in series [3] amounted to 0.55 ± 0.34 min. For the same compound, the Ki in series [4] (100 nM AmpCEC, 5 µM FC-5) was 1 µM and 1.16 µM. For the same compound, the kinact/KI in series [4] (second-order rate constant) was 224000 ± 21000 M⁻¹ s⁻¹.

For `NCCN[C@H]1CC[C@H](CC(=O)N[C@H]2Cc3cccc(C(=O)O)c3OB2O)CC1` [TAN, taniborbactam], half-maximal inhibition in series [2] (IC50) required 29.5 nM. In addition, the t1/2 in series [3] worked out at 4.55 ± 0.91 min. Further, the Ki in series [4] (100 nM AmpCEC, 5 µM FC-5) is 4 µM and 3.73 µM. Further, the kinact/KI in series [4] (second-order rate constant) was 85600 ± 9200 M⁻¹ s⁻¹.

As to `O=C(O)C[C@@H]1CC[C@H](NC(=O)Cc2cccs2)B(O)O1` [VAB, vaborbactam], the concentration for half-maximal inhibition (IC50) in series [2] is 501 nM and 479 nM. Further, the t1/2 in series [3] was determined as 16.8 ± 0.7 min. In addition, in series [4] (100 nM AmpCEC, 5 µM FC-5, second-order rate constant), the k2/K is given as 6.55 ± 0.46 M^−1 s^−1 × 10^3. Besides, in series [4] (100 nM AmpCEC, 5 µM FC-5), the Ki is 19 µM and 19.1 µM. In addition, the kinact/KI in series [4] (second-order rate constant) is approximately 7000 M⁻¹ s⁻¹.
